Measurements published in US10172954B2, “Use of a reverse-micellar system for delivering chelators of radionuclides and metals” (priority 2014, dated 2019).

Assays:
[1] = Pu decorporation in rats contaminated i.v. with plutonium citrate, chronic intrarectal treatment, liver and femur alpha activity; conditions: cumulative CaNa3DTPA doses 44.3 to 307.6 μmol/kg, rectal, treatment from D+4
[2] = oral delivery; DTPA highly polar at neutral pH; cited from earlier work

O=C([O-])CN(CCN(CC(=O)[O-])CC(=O)[O-])CCN(CC(=O)[O-])CC(=O)[O-].[Ca+2].[Na+].[Na+].[Na+] [CaNa3DTPA, pentetate calcium trisodium]
efficacy of decorporation in liver or bone Pu deposits as a function of cumulative dose [1]: proportional to the administered dose cumulative

O=C(O)CN(CCN(CC(=O)O)CC(=O)O)CCN(CC(=O)O)CC(=O)O [DTPA, diethylene triaminopentaacetic acid]
absorbed when delivered orally [2]: < 10%
